Results taken from publication PMC10382584, “Macrocyclization of linear molecules by deep learning to facilitate macrocyclic drug candidates discovery” (Nature Communications, 2023).

Tests used:
Assay in all cases: biochemical
Parameters in all cases: DiscoveRx KINOMEscan competition binding, percent of DMSO control signal at 100 nM
Settings in all cases: read-out: Fig. 4a / Percent Control / Compound 1; percent of DMSO control, competition binding
AKT1 = AKT1 (Homo sapiens, UniProt P31749)
AKT2 = AKT2 (Homo sapiens, UniProt P31751)
ALK(L1196M) = ALK(L1196M) (Homo sapiens, UniProt Q9UM73, L1196M)
BUB1 = BUB1 (Homo sapiens, UniProt O43683)
BUB1, sequence (O43683 whole entry): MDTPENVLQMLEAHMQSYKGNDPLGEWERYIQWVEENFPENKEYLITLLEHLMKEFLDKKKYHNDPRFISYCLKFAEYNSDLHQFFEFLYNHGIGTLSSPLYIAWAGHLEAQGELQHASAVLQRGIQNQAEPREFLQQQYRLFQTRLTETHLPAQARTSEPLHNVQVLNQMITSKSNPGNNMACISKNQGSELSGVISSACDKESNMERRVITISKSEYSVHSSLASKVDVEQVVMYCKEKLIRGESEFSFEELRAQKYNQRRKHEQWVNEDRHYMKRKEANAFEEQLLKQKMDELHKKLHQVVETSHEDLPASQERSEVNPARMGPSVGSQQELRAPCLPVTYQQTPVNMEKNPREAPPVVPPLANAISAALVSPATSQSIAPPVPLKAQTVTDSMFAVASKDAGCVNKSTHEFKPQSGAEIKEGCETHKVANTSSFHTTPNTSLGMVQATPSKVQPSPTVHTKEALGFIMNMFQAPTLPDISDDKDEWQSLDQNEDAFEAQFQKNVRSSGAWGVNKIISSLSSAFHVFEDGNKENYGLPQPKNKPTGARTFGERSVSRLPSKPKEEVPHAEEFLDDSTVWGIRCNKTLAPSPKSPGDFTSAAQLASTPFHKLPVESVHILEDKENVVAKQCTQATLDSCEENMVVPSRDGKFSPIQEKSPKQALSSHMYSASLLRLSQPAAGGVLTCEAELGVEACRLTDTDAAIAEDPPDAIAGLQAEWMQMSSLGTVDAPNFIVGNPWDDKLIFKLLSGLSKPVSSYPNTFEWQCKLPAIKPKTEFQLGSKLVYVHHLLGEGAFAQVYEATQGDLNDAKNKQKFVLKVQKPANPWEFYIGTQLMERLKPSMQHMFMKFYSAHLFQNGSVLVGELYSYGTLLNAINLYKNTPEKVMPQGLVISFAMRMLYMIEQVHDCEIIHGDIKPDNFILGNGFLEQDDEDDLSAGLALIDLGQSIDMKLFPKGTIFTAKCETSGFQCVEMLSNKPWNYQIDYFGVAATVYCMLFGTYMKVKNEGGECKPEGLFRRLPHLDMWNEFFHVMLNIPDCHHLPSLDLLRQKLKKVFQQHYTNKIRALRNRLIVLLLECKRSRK

CAMK4 = CAMK4 (Homo sapiens, UniProt Q16566)
CDC2L2 = biological target: T1, CDC2L2 (Homo sapiens, UniProt Q9UQ88)
T1 construct: gene CDK11A

CSNK1A1 = CSNK1A1 (Homo sapiens, UniProt P48729)
DCAMKL2 = biological target: T2, DCAMKL2 (Homo sapiens, UniProt Q8N568)
T2 construct: gene DCLK2

EPHA1 = EPHA1 (Homo sapiens, UniProt P21709)
EPHB1 = EPHB1 (Homo sapiens, UniProt P54762)
ERK8 = biological target: T3, ERK8 (Homo sapiens, UniProt Q8TD08)
T3 construct: gene MAPK15
T3 sequence (Q8TD08 whole entry): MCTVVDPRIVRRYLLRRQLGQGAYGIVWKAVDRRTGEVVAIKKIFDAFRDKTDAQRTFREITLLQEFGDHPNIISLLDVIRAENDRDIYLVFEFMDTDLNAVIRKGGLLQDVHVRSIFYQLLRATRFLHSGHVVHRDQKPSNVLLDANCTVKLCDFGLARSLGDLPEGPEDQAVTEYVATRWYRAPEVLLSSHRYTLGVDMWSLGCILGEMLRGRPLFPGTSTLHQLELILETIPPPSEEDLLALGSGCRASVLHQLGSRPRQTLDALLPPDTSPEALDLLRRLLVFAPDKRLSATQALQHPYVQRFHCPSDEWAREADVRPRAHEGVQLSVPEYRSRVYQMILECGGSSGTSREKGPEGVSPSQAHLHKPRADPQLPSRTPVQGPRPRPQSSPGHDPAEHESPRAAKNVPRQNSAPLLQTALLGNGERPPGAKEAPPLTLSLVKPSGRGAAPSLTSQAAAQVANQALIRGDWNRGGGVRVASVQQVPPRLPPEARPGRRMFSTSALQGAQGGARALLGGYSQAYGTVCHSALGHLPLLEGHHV

IKK-epsilon = biological target: T4, IKK-epsilon (Homo sapiens, UniProt Q14164)
T4 construct: gene IKBKE

LIMK1 = LIMK1 (Homo sapiens, UniProt P53667)
MEK4 = biological target: T5, MEK4 (Homo sapiens, UniProt P45985)
T5 construct: gene MAP2K4

MEK6 = biological target: T6, MEK6 (Homo sapiens, UniProt P52564)
T6 construct: gene MAP2K6

PAK1 = PAK1 (Homo sapiens, UniProt Q13153)
PDPK1 = PDPK1 (Homo sapiens, UniProt O15530)
PIK3CD = PIK3CD (Homo sapiens, UniProt O00329)
PIK3CD, sequence (O00329 whole entry): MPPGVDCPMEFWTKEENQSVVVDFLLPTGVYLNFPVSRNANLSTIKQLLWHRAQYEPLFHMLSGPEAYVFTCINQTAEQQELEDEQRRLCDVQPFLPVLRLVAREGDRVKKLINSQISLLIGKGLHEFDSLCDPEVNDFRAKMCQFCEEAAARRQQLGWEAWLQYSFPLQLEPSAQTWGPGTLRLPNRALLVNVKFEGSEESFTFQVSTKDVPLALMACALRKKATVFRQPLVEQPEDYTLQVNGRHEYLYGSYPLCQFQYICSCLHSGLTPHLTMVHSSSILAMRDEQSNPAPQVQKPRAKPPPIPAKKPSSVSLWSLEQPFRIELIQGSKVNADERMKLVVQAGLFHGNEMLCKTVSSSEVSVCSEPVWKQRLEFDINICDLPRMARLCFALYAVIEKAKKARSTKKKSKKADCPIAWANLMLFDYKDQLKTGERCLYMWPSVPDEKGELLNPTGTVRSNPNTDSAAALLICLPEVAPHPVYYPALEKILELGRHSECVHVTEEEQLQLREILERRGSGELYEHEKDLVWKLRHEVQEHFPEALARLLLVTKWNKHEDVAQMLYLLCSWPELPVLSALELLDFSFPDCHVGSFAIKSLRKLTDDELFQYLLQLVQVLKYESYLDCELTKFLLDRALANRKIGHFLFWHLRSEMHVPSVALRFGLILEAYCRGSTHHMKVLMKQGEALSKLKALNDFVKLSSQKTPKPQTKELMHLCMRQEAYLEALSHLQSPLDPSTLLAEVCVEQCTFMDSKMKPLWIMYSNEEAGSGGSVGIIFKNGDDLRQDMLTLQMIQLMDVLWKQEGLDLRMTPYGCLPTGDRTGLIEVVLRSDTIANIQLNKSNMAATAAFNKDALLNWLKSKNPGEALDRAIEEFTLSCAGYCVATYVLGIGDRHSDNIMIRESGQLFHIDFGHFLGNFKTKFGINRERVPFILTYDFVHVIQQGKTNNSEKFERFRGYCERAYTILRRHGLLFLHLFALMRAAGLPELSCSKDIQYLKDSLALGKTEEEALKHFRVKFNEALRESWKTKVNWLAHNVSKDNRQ

PRKCQ = PRKCQ (Homo sapiens, UniProt Q04759)
PRKCQ, sequence (Q04759 whole entry): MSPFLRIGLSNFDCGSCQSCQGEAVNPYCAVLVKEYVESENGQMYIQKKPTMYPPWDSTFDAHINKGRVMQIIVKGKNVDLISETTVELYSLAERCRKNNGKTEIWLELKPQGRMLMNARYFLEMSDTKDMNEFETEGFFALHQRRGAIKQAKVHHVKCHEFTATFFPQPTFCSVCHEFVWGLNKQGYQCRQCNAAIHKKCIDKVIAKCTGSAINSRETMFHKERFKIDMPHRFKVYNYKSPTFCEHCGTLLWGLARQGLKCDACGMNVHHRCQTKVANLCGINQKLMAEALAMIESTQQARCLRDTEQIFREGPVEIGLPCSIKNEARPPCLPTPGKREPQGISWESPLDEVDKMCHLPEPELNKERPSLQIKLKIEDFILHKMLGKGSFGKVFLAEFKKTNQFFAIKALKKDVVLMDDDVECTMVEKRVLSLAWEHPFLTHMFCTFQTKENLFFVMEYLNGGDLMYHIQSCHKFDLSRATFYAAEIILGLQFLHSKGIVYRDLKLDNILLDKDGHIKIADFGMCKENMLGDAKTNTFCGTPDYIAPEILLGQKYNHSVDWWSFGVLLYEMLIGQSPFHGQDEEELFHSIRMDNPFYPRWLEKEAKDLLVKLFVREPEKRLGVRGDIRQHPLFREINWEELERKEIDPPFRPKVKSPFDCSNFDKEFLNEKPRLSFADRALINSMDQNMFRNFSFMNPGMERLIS

RIPK4 = RIPK4 (Homo sapiens, UniProt P57078)
ROS1 = ROS1 (Homo sapiens, UniProt P08922)
[1] = biological target: T7, RSK1(Kin.Dom.2-C-terminal) (Homo sapiens, UniProt Q15418)
T7 construct: gene RPS6KA1; Kin.Dom.2-C-terminal
T7 sequence (Q15418 whole entry): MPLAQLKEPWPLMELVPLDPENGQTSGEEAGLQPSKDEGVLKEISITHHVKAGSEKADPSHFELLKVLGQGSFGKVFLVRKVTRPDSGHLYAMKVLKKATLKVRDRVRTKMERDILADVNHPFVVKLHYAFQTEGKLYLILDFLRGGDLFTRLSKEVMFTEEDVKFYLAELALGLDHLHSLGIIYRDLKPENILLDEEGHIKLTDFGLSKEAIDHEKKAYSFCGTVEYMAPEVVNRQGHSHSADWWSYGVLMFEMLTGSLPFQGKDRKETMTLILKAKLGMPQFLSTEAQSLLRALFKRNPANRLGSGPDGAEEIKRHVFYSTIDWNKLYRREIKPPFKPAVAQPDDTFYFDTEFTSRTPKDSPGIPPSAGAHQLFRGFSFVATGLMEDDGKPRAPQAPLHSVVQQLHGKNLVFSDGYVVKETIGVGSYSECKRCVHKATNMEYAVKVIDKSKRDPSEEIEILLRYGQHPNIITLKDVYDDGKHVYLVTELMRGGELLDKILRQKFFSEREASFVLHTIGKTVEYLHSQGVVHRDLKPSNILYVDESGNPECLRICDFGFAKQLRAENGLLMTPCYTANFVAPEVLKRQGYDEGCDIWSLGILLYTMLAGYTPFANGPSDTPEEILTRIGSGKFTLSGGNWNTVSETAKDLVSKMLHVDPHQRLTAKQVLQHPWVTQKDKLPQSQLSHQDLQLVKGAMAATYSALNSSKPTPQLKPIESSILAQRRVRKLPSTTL

SgK110 = biological target: T8, SgK110 (Homo sapiens, UniProt P0C264)
T8 construct: gene SBK3

TAOK1 = TAOK1 (Homo sapiens, UniProt Q7L7X3)
VPS34 = biological target: T9, VPS34 (Homo sapiens, UniProt Q8NEB9)
T9 construct: gene PIK3C3
T9 sequence (Q8NEB9 whole entry): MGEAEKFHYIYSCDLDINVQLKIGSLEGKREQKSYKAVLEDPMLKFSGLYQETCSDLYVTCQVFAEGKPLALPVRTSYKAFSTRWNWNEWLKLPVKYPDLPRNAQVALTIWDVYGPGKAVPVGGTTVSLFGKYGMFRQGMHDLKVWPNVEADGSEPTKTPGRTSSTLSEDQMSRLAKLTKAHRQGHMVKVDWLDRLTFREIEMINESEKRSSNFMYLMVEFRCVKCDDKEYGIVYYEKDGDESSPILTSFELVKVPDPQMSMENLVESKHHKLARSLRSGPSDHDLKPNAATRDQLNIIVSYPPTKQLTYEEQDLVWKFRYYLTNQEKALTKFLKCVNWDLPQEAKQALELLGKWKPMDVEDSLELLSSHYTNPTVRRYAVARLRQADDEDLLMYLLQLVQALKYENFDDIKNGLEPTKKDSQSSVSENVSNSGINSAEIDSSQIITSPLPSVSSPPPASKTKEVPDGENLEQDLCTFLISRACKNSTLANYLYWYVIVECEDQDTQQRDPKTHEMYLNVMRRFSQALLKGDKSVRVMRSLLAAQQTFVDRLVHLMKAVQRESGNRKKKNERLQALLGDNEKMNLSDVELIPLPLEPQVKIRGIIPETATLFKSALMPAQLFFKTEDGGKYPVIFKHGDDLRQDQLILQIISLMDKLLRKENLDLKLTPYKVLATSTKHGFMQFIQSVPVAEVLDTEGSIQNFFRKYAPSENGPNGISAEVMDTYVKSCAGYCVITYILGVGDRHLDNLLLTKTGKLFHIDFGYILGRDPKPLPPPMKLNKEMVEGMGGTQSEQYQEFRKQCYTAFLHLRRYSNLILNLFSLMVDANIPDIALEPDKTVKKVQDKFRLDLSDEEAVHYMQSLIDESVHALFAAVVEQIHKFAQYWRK
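Also: KINOMEscan kinase panel binding assay, signal normalized between DMSO as 100% and a positive control compound as 0%.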

SMILES: Cc1cnc2nc1Nc1cccc(c1)COCc1cc(ccc1OCCN1CCCC1)N2 [Compound 1]
- remaining binding at 0.1 µM (AKT1): 100%
- remaining binding at 0.1 µM (AKT2): 89%
- remaining binding at 0.1 µM (ALK(L1196M)): 60%
- remaining binding at 0.1 µM (BUB1): 82%
- remaining binding at 0.1 µM (CAMK4): 100%
- remaining binding at 0.1 µM (CDC2L2): 94%
- remaining binding at 0.1 µM (CSNK1A1): 95%
- remaining binding at 0.1 µM (DCAMKL2): 96%
- remaining binding at 0.1 µM (EPHA1): 91%
- remaining binding at 0.1 µM (EPHB1): 97%
- remaining binding at 0.1 µM (ERK8): 99%
- remaining binding at 0.1 µM (IKK-epsilon): 100%
- remaining binding at 0.1 µM (LIMK1): 88%
- remaining binding at 0.1 µM (MEK4): 92%
- remaining binding at 0.1 µM (MEK6): 100%
- remaining binding at 0.1 µM (PAK1): 100%
- remaining binding at 0.1 µM (PDPK1): 98%
- remaining binding at 0.1 µM (PIK3CD): 89%
- remaining binding at 0.1 µM (PRKCQ): 100%
- remaining binding at 0.1 µM (RIPK4): 65%
- remaining binding at 0.1 µM (ROS1): 76%
- remaining binding at 0.1 µM [1]: 98%
- remaining binding at 0.1 µM (SgK110): 65%
- remaining binding at 0.1 µM (TAOK1): 72%
- remaining binding at 0.1 µM (VPS34): 27%
